Assays:
[1] = target: T1, Tyrosine-protein phosphatase non-receptor type 1 (Homo sapiens) (UniProt P18031); experiment: (§1) Inhibition of recombinant human N-terminal poly histidine-tagged PTP1B (Glu2 to Asn321 residues) expressed in Escherichia coli at 40 umol/L using pNPP as substrate measured for 4 mins relative to control
T1 sequence (whole entry): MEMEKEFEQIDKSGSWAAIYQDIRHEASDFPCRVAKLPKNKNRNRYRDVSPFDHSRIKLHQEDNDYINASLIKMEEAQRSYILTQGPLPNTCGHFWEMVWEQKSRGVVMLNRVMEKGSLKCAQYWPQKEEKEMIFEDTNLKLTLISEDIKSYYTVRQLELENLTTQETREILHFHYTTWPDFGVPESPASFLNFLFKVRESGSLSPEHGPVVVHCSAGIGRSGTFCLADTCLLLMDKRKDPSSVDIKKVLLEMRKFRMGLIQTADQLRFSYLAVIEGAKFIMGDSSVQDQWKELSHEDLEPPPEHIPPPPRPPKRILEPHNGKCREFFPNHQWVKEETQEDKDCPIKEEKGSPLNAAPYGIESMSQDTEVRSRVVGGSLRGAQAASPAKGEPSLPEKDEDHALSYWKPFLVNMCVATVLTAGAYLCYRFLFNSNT

[2] = target: T1, Tyrosine-protein phosphatase non-receptor type 1 (Homo sapiens); experiment: Binding affinity to recombinant human N-terminal poly histidine-tagged PTP1B (Glu2 to Asn321 residues) expressed in Escherichia coli assessed as dissociation rate constant by surface plasmon resonance analysis
[3] = target: T2, Tyrosine-protein phosphatase non-receptor type 1 (Homo sapiens, UniProt P18031); experiment: Binding affinity to recombinant human N-terminal poly histidine-tagged PTP1B (Glu2 to Asn321 residues) expressed in Escherichia coli by surface plasmon resonance analysis
T2 sequence (P18031 whole entry): T1 sequence (whole entry)

[4] = target: T1, Tyrosine-protein phosphatase non-receptor type 1 (Homo sapiens); experiment: Binding affinity to recombinant human N-terminal poly histidine-tagged PTP1B (Glu2 to Asn321 residues) expressed in Escherichia coli assessed as association rate constant by surface plasmon resonance analysis
[5] = target: Tyrosine-protein phosphatase non-receptor type 1 (Homo sapiens) (UniProt P18031); experiment: as §1; remark: listed apart in the source

Substance	inhibition [1]	Kdiss [2]	Kd [3]	Ka [4]	inhibition [5]
Ac-IAQELRRIGDEFNA-NH2	3.31%	–	–	–	–
Ac-IWIAQELRRIGDEF-NH2	5%	1.26 ×10⁻³ /s	128 nM	9880 M⁻¹ s⁻¹	–
Ac-IWIAQELRRIGDEFNA-NH2	2.32%	6.38 ×10⁻⁴ /s	26.9 nM	2.37 ×10⁴ /Ms	–
Ac-WIAQELRRIGDEFN-NH2	9.43%	–	–	–	–
SODIUM ORTHOVANAD	–	–	–	–	75.4%

— ChEMBL document CHEMBL4371021, “BH3 mimetics derived from Bim-BH3 domain core region show PTP1B inhibitory activity” (Bioorg Med Chem Lett, 2019)
